Assay results: US11603391B2, “CATH2 derivatives” (Universiteit Utrecht Holding B.V., priority 2014, dated 2023)
No end group written: not given here.

Tests used:
[1] = system: avian pathogenic Escherichia coli O78 (APEC O78) field isolate; test: Antibacterial colony count assay in DMEM containing 10% fetal calf serum; type: cell-based; conditions: 5 μM peptide, 3×10^5 CFU/ml, 2 h at 37° C., DMEM/10% FCS
Protocol: (§1) FIG. 9A-9C—Antibacterial activity of CMAP27 derived peptides in vitro against an avian pathogenic Escherichia coli O78 (APEC O78) field isolate. A) Antibacterial activity of peptides (5 μM) against APEC O78 (2×10^6 CFU/ml) in 50% Mueller Hinton broth using colony count assays. B) Antibacterial activity of peptides (5 μM) against APEC O78 (3×10^5 CFU/ml) in DMEM containing 10% fetal calf serum (FCS) using colony count assays. C) TNFα production by J774.A1 cells (ELISA) after 2 h incubation at 37° C. with live or heat-killed APEC O78 (3×10^5 CFU/m) in DMEM/10% FCS, in the presence or absence of 5 μM peptide. Data represents means±SEM from 3 independent experiments.
To test if peptides would be able to inhibit bacteria under more challenging conditions, e.g. in the presence of salts and serum proteins, APEC O78 was incubated with peptide in DMEM medium containing 10% fetal calf serum. In brief, bacterial survival was estimated by incubating 3×10^5 CFU/ml APEC O78 during 2 h at 37° C. in DMEM/10% FCS in the presence or absence of 5 μM peptide, after which serial dilutions were made, spread on agar media and colonies were enumerated after 24 h incubation at 37° C.

J774.A1 cells = test: Inhibition of APEC O78-induced TNFα production by macrophages (ELISA); type: cell-based, murine; conditions: 5 μM peptide, 2 h, DMEM/10% FCS; for inhibition of TNFα production induced by heat-killed bacteria: 3×10^5 CFU/ml heat-killed APEC O78; for inhibition of TNFα production induced by live bacteria: 3×10^5 CFU/ml live APEC O78
Protocol: as §1
Peptide-mediated inhibition of macrophage activation induced by live or heat-killed APEC O78, was examined using J774.A1 cells, a murine macrophage cell line. For this purpose, J774.A1 cells (150,000 cells/well) cultured in DMEM containing 10% FCS were exposed during 2 h at 37° C. to 3×10^5 CFU/ml APEC O78 with or without 5 μM peptide, after which supernatants were collected and used to determine TNFα production (ELISA).

HD11 cells [2] = test: Neutralization of LPS-induced interleukin-1β transcription in HD11 cells (real time PCR); type: cell-based, chicken; conditions: 20 μM peptide pre-incubated with 50 ng/ml LPS; 4 h
Protocol: (§2) FIG. 11A-11B—Neutralization of lipopolysaccharide-induced interleukin-1β induction and nitric oxide production in HD11 cells by CMAP27 derived peptides. HD11 cells were seeded in 96 wells tissue culture treated plates (2×10^5 cell/mL) in RPMI-1640/10% FCS. Final concentrations of 50 ng/ml LPS were pre-incubated with or without 20 μM peptide for 30 min at 37° C. (5% CO2), applied to the cells and incubated for 4 h and 24 h. A) Transcription levels of interleukin-1 were determined by real time PCR (4 h only). B) Supernatants were collected for the determination of nitric oxide production (24 h incubations only) using the Griess assay. Significance levels: *P<0.05, **P<0.01, ***P<0.001. Data represents means±SEM from 3-4 independent experiments.
as §2, with “FIG. 12A-12B—Substitution” for “FIG. 11A-11B—Neutralization”, “of phenylalanine residues by tryptophan enhances the” for “of lipopolysaccharide-induced interleukin-1β induction and nitric oxide production”, “in vitro LPS neutralization capacity of” for “in HD11 cells by”, “h or” for “h and”
(§3) HD11 cells were seeded in 96 wells tissue culture treated plates (2×10^5 cell/mL) in RPMI-1640/10% FCS. Final concentrations of 50 ng/ml Salmonella minnesota LPS were pre-incubated with or without 20 μM peptide for 30 min at 37° C. (5% CO2), applied to the cells and incubated for 4 h and 24 h. A) Transcription levels of interleukin-1 were determined by real time PCR (4 h only). B) Supernatants were collected for the determination of nitric oxide production (24 h incubations only) using the Griess assay.

HD11 cells [3] = test: Neutralization of LPS-induced nitric oxide production in HD11 cells (Griess assay); type: cell-based, chicken; conditions: 20 μM peptide pre-incubated with 50 ng/ml LPS; 24 h
Protocol: as §2
as §2, with “FIG. 12A-12B—Substitution” for “FIG. 11A-11B—Neutralization”, “of phenylalanine residues by tryptophan enhances the” for “of lipopolysaccharide-induced interleukin-1β induction and nitric oxide production”, “in vitro LPS neutralization capacity of” for “in HD11 cells by”, “h or” for “h and”
as §3

HD11 cells [4] = test: Uptake of Alexa-Fluor 488 labeled ODN-2006 by HD11 cells (flow cytometry); type: cell-based, chicken; conditions: 5 μM peptide; 2.5 nM Alexa-Fluor 488 labeled ODN-2006; 4 h
Protocol: (§4) FIG. 13A-13B—CMAP27 derived peptides enhance DNA uptake and DNA-induced activation. A) HD11 cells were stimulated during 4 h with 2.5 nM Alexa-Fluor 488 labeled ODN-2006 in the absence and presence of CMAP27 derived peptides (5 μM), after which DNA uptake was analyzed by flow cytometry. B) Supernatants of HD11 cells stimulated for longer time (17 h) under these same conditions were collected and used for determination of nitric oxide production using the Griess assay. Data represents means±SEM from 3-4 independent experiments.
(§5) To study effects of peptides on the uptake of DNA, HD11 cells were seeded 3×10^5 cells in 24-wells plates, stimulated during 4 h with 2.5 nM Alexa-Fluor 488 labeled ODN-2006 in the absence and presence of CMAP27 derived peptides (5 μM), after which DNA uptake was analyzed by flow cytometry. Activation of HD11 cells was examined by collecting supernatants after 17 h under the same conditions and determination of nitric oxide production.

HD11 cells [5] = test: DNA-induced nitric oxide production in HD11 cells (Griess assay); type: cell-based, chicken; conditions: 5 μM peptide; 2.5 nM ODN-2006; 17 h
Protocol: as §4, §5

HD11 cells [6] = test: Chemokine induction in HD11 cells (real time PCR); type: cell-based, chicken; conditions: 20 μM peptide
Protocol: FIG. 10—Chemokine induction by CMAP27 derived peptides in HD11 cells. HD11 cells were seeded in 96 wells tissue culture treated plates (2×10^5 cell/mL) in RPMI-1640/10% FCS and incubated at 37° C. (5% CO2) with peptide (20 μM) supplemented medium during 4 h (open bars) or 24 h (closed bars). Transcription levels of interleukin-1β, IL-8 (CXCLi2), monocyte chemotactic protein-3 (MCP-3) and RANTES (CCLi4) were determined by real time PCR. Significance levels: *P<0.05, **P<0.01, ***P<0.001. Data represents means±SEM from 3-4 independent experiments.
HD11 cells, a chicken macrophage cell line, were seeded in 96 wells tissue culture treated plates (2×10^5 cell/mL) in RPMI-1640/10% FCS and incubated at 37° C. (5% CO2) with peptide (20 μM) supplemented medium during 4 h or 24 h. Transcription levels of interleukin-1β, -8 (CXCLi2), monocyte chemotactic protein-3 (MCP-3) and RANTES (CCLi4) were determined by real time PCR.

| Substance | inhibition of bacterial growth (antibacterial activity, in words) [1] | inhibition of TNFα production induced by heat-killed bacteria (J774.A1 cells) | inhibition of TNFα production induced by live bacteria (J774.A1 cells) | LPS-induced IL-1β expression blocked (HD11 cells [2]) [%] | LPS-induced NO production blocked (HD11 cells [3]) [%] | uptake of ODN-2006 by HD11 cells (HD11 cells [4]) | DNA-induced nitric oxide production (HD11 cells [5]) | induction of CXCLi2/IL-8 transcription (HD11 cells [6]; 4 h or 24 h) | induction of MCP-3 transcription (HD11 cells [6]; 4 h or 24 h) | LPS-neutralizing activity (block of LPS-induced IL-1β expression, in words) (HD11 cells [2]) | surviving bacteria ([1]; detection limit) [cells/ml] | induction of proinflammatory cytokine IL-1β transcription (HD11 cells [6]; 4 h or 24 h) | induction of CCLi4/RANTES transcription (HD11 cells [6]; prolonged stimulation (24 h) needed) |
| --- | --- | --- | --- | --- | --- | --- | --- | --- | --- | --- | --- | --- | --- |
| CMAP1-21-NH2: C-terminally truncated CMAP27 derivative, residues 1-21 | substantially inhibited | substantially inhibited | substantially inhibited | 93.5 | 78.9 | enhanced the uptake | increasing | – | – | – | – | – | – |
| CMAP4-21-NH2: N-terminally truncated variant of CMAP1-21 (RFLRKIRRFRPKVTITIQ-NH2) | substantially inhibited | – | – | 80.5 | 51 | enhanced the uptake | increasing | – | – | – | – | – | – |
| CMAP7-21-NH2: N-terminally truncated variant of CMAP1-21, 15 amino acid residues (RKIRRFRPKVTITIQ-NH2) | lacking antibacterial activity | inhibited to some extent | – | – | – | enhanced the uptake | increasing | maintained a capacity to induce | maintained a capacity to induce | lack LPS-neutralizing activity | – | – | – |
| RFGRFLRKIRRFRPKVTITIQGSARF-NH2 [CMAP1-26-NH2] | substantially inhibited | substantially inhibited | substantially inhibited | 90.8 | 96.2 | enhanced the uptake | increasing | induce transcription | induce transcription | – | < 100 | not induced | induce transcription |
